Experimental data taken from US8193171B2, “13,13-dimethyl-des-C,D analogs of 1α,25-dihydroxy-19-nor-vitamin D3 compounds and topical composition dosage forms and methods of treating skin conditions thereof” (Wisconsin Alumni Research Foundation, priority 2008, dated 2012).

Assays:
Rhino mouse comedones = test: Comedolytic effect of daily topical application in the Rhino mouse; format: in vivo; conditions: for Comedone Area (% Vehicle): Rhino mouse, topical daily ca. 3 weeks, 70 vol % ethanol / 30 vol % propylene glycol, mean ± SEM, N 6
Description: Rhino mice were used to topically test the compounds and compositions of the invention. The Rhino mouse is a well-established animal model used to study the comedolytic effects of anti-acne agents including retinoids. (See Boulcier M et al., 1990, Experimental Models in Skin Pharmacology, In Pharmacological Reviews 42:127-154). The Rhino mouse model was used to study the therapeutic potential of 13Me2.
Animals and dose administration. Rhino mice were enrolled in the study at 6-8 weeks of age and were dosed daily via the topical route. The mice were weighed three times per week and doses were adjusted weekly based on body weight. The topical formulations were applied to the back of the animal in a maximum volume of 100 μL. The topical formulations were made by mixing the 13Me2 with a topical carrier comprising 70 vol % ethanol and 30 vol % propylene glycol, as indicated. The topical vehicle control was the vehicle carrier solution matched to the formulation containing API and vehicle carrier. Mice were sacrificed 72 hours after the final topical dose. At sacrifice, the dorsal skin was collected for histology studies.
Comedolytic effect. The extent of the comedolytic effect (i.e., efficacy) was assessed by measuring the average area of the comedones, whereby the smaller the area, the larger the effect. The comedone area was determined by histological analysis of tissue sections based upon lab methods. Skin was fixed overnight in 4% paraformaldehyde at 4° C. with gentle agitation, and dehydrated the next day into 100% methanol.
Samples were embedded in paraffin and a total of nine 10μ sections 150μ apart were prepared from each Rhino mouse. Five of the nine sections were digitally imaged (6× magnification) for comedone analysis using Metamorph Imaging Software (trace function). The perimeter of each comedone on the images taken from the 5 sections was then traced using a Wacom Intuos 3 Graphics Tablet interfaced with the software.
The number of pixels comprising the area of each individual comedone was obtained, and the mean number of pixels per comedone was obtained for each Rhino mouse. For comedones that were completely healed (area=0) a pixel value approaching 0 (<10) was scored. The individual comedone area average for each mouse was then used to calculate the treatment group mean. Results in the figures are expressed in terms of mean±standard error of the mean.
Preparation of topical formulations containing 13Me2. A concentrated ethanolic stock of 13Me2 was diluted to a final concentration containing 30 vol % propylene glycol and 70 vol % ethanol as the excipient carrier system. The mixture was thoroughly mixed. The topical dosing formulation delivered a predetermined dosing amount of drug on a per kilogram body weight basis. […]

[1] = tested on: 24-hydroxylase (24OHase) gene promoter; test: In vitro 24-OHase transcription assay (luciferase reporter in ROS 17/2.8 bone cells); format: cell-based; conditions: ROS 17/2.8 cells, sixteen hours after dosing
Experimental: In vitro Transcription Assay. Transcription activity was measured in ROS 17/2.8 (bone) cells that were stably transfected with a 24-hydroxylase (24OHase) gene promoter upstream of a luciferase reporter gene. (Arbour et al., 1998). Cells were given a range of doses. Sixteen hours after dosing the cells were harvested and luciferase activities were measured using a luminometer. RLU=relative luciferase units.

[2] = tested on: bone calcium mobilization; test: Bone calcium mobilization (serum calcium); format: in vivo, rat; conditions: Sprague-Dawley rats, four consecutive intraperitoneal doses
Experimental: (§1) Intestinal Calcium Transport and Bone Calcium Mobilization Activity. Male, weanling Sprague-Dawley rats were placed on Diet 11 (0.47% Ca) diet+AEK oil for one week followed by Diet 11 (0.02% Ca)+AEK oil for 3 weeks. The rats were then switched to a diet containing 0.47% Ca for one week followed by two weeks on a diet containing 0.02% Ca. Dose administration began during the last week on 0.02% calcium diet. Four consecutive intraperitoneal doses were given approximately 24 hours apart. Twenty-four hours after the last dose, blood was collected from the severed neck and the concentration of serum calcium determined as a measure of bone calcium mobilization. The first 10 cm of the intestine was also collected for intestinal calcium transport analysis using the everted gut sac method.

[3] = molecular target: T1, Full-length recombinant rat receptor (vitamin D receptor, VDR) (Rattus norvegicus, UniProt P13053); test: Competitive vitamin D receptor binding; conditions: relative to 1.25(OH)2D3; radioligand 3H-1.25(OH)2D3 1 nM
T1 construct: Full-length recombinant rat receptor was expressed in E. coli; histidine tag (C); made in house; host or cells: E. coli BL21(DE3) Codon Plus RIL
T1 sequence (P13053 1-423): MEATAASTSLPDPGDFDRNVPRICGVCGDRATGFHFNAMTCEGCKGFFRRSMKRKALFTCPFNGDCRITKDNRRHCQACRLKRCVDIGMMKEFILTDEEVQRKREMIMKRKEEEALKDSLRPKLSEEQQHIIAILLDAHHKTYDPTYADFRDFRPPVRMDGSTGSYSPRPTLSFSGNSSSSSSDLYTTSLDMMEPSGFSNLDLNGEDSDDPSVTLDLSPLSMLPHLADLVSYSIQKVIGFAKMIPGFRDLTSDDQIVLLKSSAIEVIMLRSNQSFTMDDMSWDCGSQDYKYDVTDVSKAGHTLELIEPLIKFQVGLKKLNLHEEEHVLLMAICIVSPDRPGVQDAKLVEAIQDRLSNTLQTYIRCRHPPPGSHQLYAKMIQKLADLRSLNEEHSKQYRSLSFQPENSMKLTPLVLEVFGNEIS
Experimental: Experimental Methods. […] The first system was a nickel affinity resin that utilizes the C-terminal histidine tag on this protein. The protein that was eluted from this resin was further purified using ion exchange chromatography (S-Sepharose Fast Flow). Aliquots of the purified protein were quick frozen in liquid nitrogen and stored at −80° C. until use. For use in binding assays, the protein was diluted in TEDK50 (50 mM Tris, 1.5 mM EDTA, pH 7.4, 5 mM DTT, 150 mM KCl) with 0.1% Chaps detergent. The receptor protein and ligand concentration was optimized such that no more than 20% of the added radiolabeled ligand was bound to the receptor.
Assay Conditions. […] The hydroxylapaptite was collected by centrifugation and then washed three times with Tris-EDTA buffer (50 mM Tris, 1.5 mM EDTA, pH 7.4) containing 0.5% Titron X-100. After the final wash, the pellets were transferred to scintillation vials containing 4 ml of Biosafe II scintillation cocktail, mixed and placed in a scintillation counter. Total binding was determined from the tubes containing only radiolabeled ligand.

[4] = tested on: Human promyelocytic leukemia (HL-60) cells; test: HL-60 cell differentiation (nitro blue tetrazolium reduction); format: cell-based; conditions: four days of treatment
Experimental: HL-60 Differentiation. Test Material. Study Drugs. The study drugs were dissolved in ethanol and the concentrations determined using UV spectrophotometry. Serial dilutions were prepared so that a range of drug concentrations could be tested without changing the final concentration of ethanol (<0.2%) present in the cell cultures.
Cells. Human promyelocytic leukemia (HL-60) cells were grown in RPMI-1640 medium containing 10% fetal bovine serum. The cells were incubated at 37° C. in the presence of 5% CO2.
Assay Conditions. HL-60 cells were plated at 1.2×10^5 cells/ml. Eighteen hours after plating, cells in duplicate were treated with drug. Four days later, the cells were harvested and a nitro blue tetrazolium reduction assay was performed. (Collins et al., 1979, J. Exp. Med. 149:969-974). The percentage of differentiated cells was determined by counting a total of 200 cells and recording the number that contained intracellular black-blue formazan deposits. Verification of differentiation to monocytic cells was determined by measuring phagocytic activity (data not shown).

[5] = tested on: intestinal calcium transport; test: Intestinal calcium transport (everted gut sac method); format: in vivo, rat; conditions: Sprague-Dawley rats, four consecutive intraperitoneal doses
Experimental: as §1

| Compound | Comedone area relative to the vehicle-treated group (FIG. 6) (Rhino mouse comedones; Rhino mice, topical 217 nmole/kgBW/day, 3 weeks daily) | Comedone area relative to the vehicle-treated group (FIG. 7) (Rhino mouse comedones; Rhino mice, topical 69 and 217 nmole/kgBW/day, 3 weeks daily) | Comedone Area (% Vehicle) (Rhino mouse comedones; dose 217 nmol/kg) | 24-OHase transcription activity relative to 1.25(OH)2D3 [1] | Activity on bone calcium mobilization [2] | VDR binding affinity compared to the native hormone [3] | HL-60 differentiation activity relative to 1.25(OH)2D3 [4] | Activity on intestinal calcium transport [5] | Comedone Area (% Vehicle) (Rhino mouse comedones; dose 6.0 nmol/kg) |
| --- | --- | --- | --- | --- | --- | --- | --- | --- | --- |
| C=C1[C@H](O)CC(=C/C=C/CC(C)(C)C[C@@H](C)CCCC(C)(C)O)C[C@H]1O [13Me2, (1R,3R)-5-[(E)-(S)-11′-hydroxy-5′,5′,7′,11′-tetramethyl-dodec-2′-enylidene]-2-methylene-cyclohexane-1,3-diol] | significant reduction in comedone area | dose-dependent reduction in comedone area | 26 ± 3 | lower than 1.25(OH)2D3 by approximately one log | insignificant activity | one log less affinity | lower than 1.25(OH)2D3 by approximately one log | insignificant activity | – |
| C=C1/C(=C\C=C2/CCC[C@]3(C)[C@@H]([C@H](C)CCCC(C)(C)O)CC[C@@H]23)C[C@@H](O)C[C@@H]1O [1,25(OH)2D3, 1,25-DIHYDROXYVITAMIN D3, reference compound] | – | – | – | – | – | – | – | – | 187 ± 30 |
